The source of these data is ChEMBL document CHEMBL1146730, “New pyrazolo[3,4-d]pyrimidines endowed with A431 antiproliferative activity and inhibitory properties of Src phosphorylation” (Bioorg Med Chem Lett, 2004).

Test [1] deals with A-431. The test can be described thus: Inhibitory effect on phospho-Src (Tyr416) after EGF (100 uM) stimulation of A431 cells (38). To be noted: Homo sapiens.
In test [2] the test system is A-431. The test can be described thus: Inhibitory effect on phospho-Src/nonphospho after EGF (100 uM) stimulation of A431 cells (21). To be noted: Homo sapiens.
In test [3] the test system is A-431. The test can be described thus: cells. To be noted: Homo sapiens.
Description: Inhibitory effect on nonphospho-Src after EGF (100 uM) stimulation of A431 cells (control=178)
Test [4] relates to A-431. Briefly: Tested for antiproliferative activity against human A431 cells. The format is functional, cell-based.

Structures are written as SMILES.

What is called IC50 is the concentration needed to halve the response being measured. For `CSc1nc(NCc2ccccc2)c2cnn(CC(Cl)c3ccccc3)c2n1` (configuration not stated), the IC50 was 32 µM in the test on A-431 [1] and 21 µM with A-431 [2]. As for `CSc1nc(N2CCOCC2)c2cnn(CC(Cl)c3ccccc3)c2n1` (configuration not stated), the figures for the IC50 in the test on A-431 [1] and with A-431 [2] were 34 µM and 24 µM, respectively. Turning to `CC(C)(C)n1nc(-c2ccc(Cl)cc2)c2c(N)ncnc21`, the IC50 in the test with A-431 [1] amounted to 22 µM; in the test with A-431 [3] it was 131 µM; with A-431 [2] it was 17 µM. In turn, `CCCCNc1nc(SC)nc2c1cnn2CC(Cl)c1ccccc1` (configuration not stated) showed an IC50 in the test on A-431 [4] of 27 µM. Consider `CCSc1nc(N2CCCCC2)c2cnn(CC(Cl)c3ccccc3)c2n1` (configuration not stated), for which, in the test on A-431 [4], the IC50 is 176 µM. Turning to `CCCCNc1nc(SCC)nc2c1cnn2CC(Cl)c1ccccc1` (configuration not stated), the IC50 with A-431 [1] worked out at 53 µM; with A-431 [2] it was 33 µM. In the test with A-431 [4], `CSc1nc(N2CCCCC2)c2cnn(/C=C/c3ccccc3)c2n1` came in with an IC50 of 54 µM. In the test with A-431 [4], `CCSc1nc(N2CCOCC2)c2cnn(/C=C/c3ccccc3)c2n1` came in with an IC50 of 50 µM. Regarding `C(=C\n1ncc2c(N3CCCCC3)ncnc21)/c1ccccc1`, in the test with A-431 [4], 69 µM corresponded to half-maximal inhibition (IC50). This IC50 and that of the compound before are within 1.5-fold of each other. `CSc1nc(N2CCOCC2)c2cnn(/C=C/c3ccccc3)c2n1` showed an IC50 in the test on A-431 [4] of 36 µM. The same measure, in the same setting: the value for `C(=C\n1ncc2c(N3CCOCC3)ncnc21)/c1ccccc1` was 59 µM; that for `C(=C\n1ncc2c(N3CCCC3)ncnc21)/c1ccccc1` was 63 µM. In the test on A-431 [4], `CSc1nc(NCc2ccccc2)c2cnn(/C=C/c3ccccc3)c2n1` showed an IC50 of 40 µM. `CCSc1nc(NCc2ccccc2)c2cnn(CC(Cl)c3ccccc3)c2n1` (configuration not stated) gave a half-inhibitory concentration (IC50) in the test with A-431 [4] of 124 µM. Regarding `CCCCNc1ncnc2c1cnn2/C=C/c1ccccc1`, 91 µM corresponded to half-maximal inhibition with A-431 [4] (IC50). In turn, `CCCNc1ncnc2c1cnn2/C=C/c1ccccc1` showed an IC50 with A-431 [4] of 61 µM. The IC50 values of the last two compounds are within 1.5-fold of each other. With `COc1cc2ncnc(Nc3cccc(Cl)c3)c2cc1OC` [TYRPHOSTIN AG-1478], in the test with A-431 [4], the half-inhibitory concentration (IC50) was 20 µM. This IC50 lies about 3-fold lower than the previous one.
